The structures appear in SMILES notation. Where two headings read alike, the source gives them in different places.

One data set deals with L929 cells. Further details: method as in Simões-Silva et al. (2019). To be noted: ± S.D., ref Simões-Silva et al. (2019), read-out: Toxicity against L929 cells LC50; cited from earlier work.
Data set [1] relates to intracellular forms of Trypanosoma cruzi (Tulahuen strain, DTU VI). To be noted: read-out: Activity against intracellular forms of the parasite EC50, ± S.D., ref Simões-Silva et al. (2019); cited from earlier work.
In data set [2] the test system is bloodstream trypomastigote forms of Trypanosoma cruzi (Y strain, DTU II). To be noted: ref Simões-Silva et al. (2019), cited from earlier work; for EC50: read-out: Activity against bloodstream trypomastigotes EC50; for EC50 / EC90: Y strain; for EC90: read-out: Activity against bloodstream trypomastigotes EC90.
A short description of a further data set: in vitro. Format: cell-based. The settings on record: mouse. How it is done:
L929 culture cells were seeded in 96-well plates with 4 × 10^3 cells per well and sustained in RPMI medium supplemented with 10% FBS. The compounds were added (0–400 μM, serially diluted 1:2) and the non-infected cultures incubated for 96 h at 37°C/5% CO2. Then, their viability was assessed by Alamar Blue reagent following the manufacturer's specifications. Controls were carried out with parasites kept under the same conditions in the absence of the compounds.

Data set [3] relates to intracellular forms of Trypanosoma cruzi (Tulahuen strain, DTU VI). The data set can be described thus: In vitro activity against intracellular forms of T. cruzi (Tulahuen strain, β-galactosidase) in L929 cells. To be noted: for Selectivity index (IC50/EC50): SI = LC50 (L929) / EC50 (intracellular forms); for EC90 / EC50: Tulahuen strain in L929 cells, 96 h, 95% confidence interval in brackets; for EC90: read-out: Activity against intracellular forms of the parasite EC90; for EC50: read-out: Activity against intracellular forms of the parasite EC50. Format: cell-based. How it is done:
L929 cells were infected with trypomastigotes obtained from the supernatant of infected cultures. After 2 h of interaction (10 parasites per host cell), the parasites which were not internalized were removed by replacing the RPMI medium. After 48 h of incubation, the compounds were added to the infected cultures (0–10 μM, serially diluted 1:2) and the cultures incubated for 96 h at 37°C/5% CO2. BZ and DMSO (solvent used for the compounds) were run in parallel as positive and negative controls, respectively. After the elapsed time, 50 μL per well of chlorophenol red-β-D-galactopyranoside was added and a reading was done in a spectrophotometer at 570 nm (Romanha et al., [2010]).

Data set [4] deals with bloodstream trypomastigote forms of Trypanosoma cruzi (Y strain, DTU II). The experiment in a line: In vitro activity against bloodstream trypomastigotes (Y strain). Format: cell-based. To be noted: 95% confidence interval in brackets. How it is done:
Trypomastigote forms were incubated in 96-well microplates. Briefly, 100 μL of a BT suspension (in RPMI medium + 5% FBS) containing 10^7 parasites mL^−1 was added to the same volume of each compound diluted in RPMI + 5% FBS at twice of the desired final concentration (0–50 μM, serially diluted 1:2). After 2 and 24 h at 37°C, the number of live parasites was determined by light microscope quantification using a Neubauer chamber. Controls were carried out with parasites kept under the same conditions in the absence of the compounds. BZ was run in parallel.

[5] abbreviates: Trypanosoma cruzi, TULAHUEN, L929, 96 h.

The EC50 is the concentration giving half of the maximal effect. What is called EC90 is the concentration needed for an effect of 90%. Turning to `O=C(Cn1ccnc1[N+](=O)[O-])NCc1ccccc1` [BZ, benznidazole], the CC50 in the data set on L929 cells is above 400 µM. Besides, the 50% effective concentration (EC50) in data set [1] was 4.1 ± 1.3 µM; in data set [2] (2 h), above 50 µM; in data set [2] (24 h, ± S.D.), 14.4 ± 3.4 µM. The “activity against bloodstream trypomastigotes in words” value in data set [2] (after 2 h of drug exposure) is “completely inactive”. Moreover, the EC90 in data set [2] (2 h) is above 50 µM; in data set [2] (24 h, ± S.D.), 22.8 ± 7.8 µM.

`Cc1ccc(CC(=O)c2ccc(OCCCCn3ccnc3)c(Br)c2)cc1Nc1nccc(-c2cccnc2)n1` [LS2/89]: the CC50 at 96 h in the data set “in vitro” is 12.3 µM. For the same compound, the “Selectivity index (IC50/EC50)” value in data set [3] worked out at 64.74. In addition, the EC90 came out at 1.6 µM in data set [3] (setting [5]); 1.68 µM in data set [3]; 4.93 µM in data set [4] (24 h); 8.12 µM in data set [4] (Trypanosoma cruzi, 2 h); 4.9 µM in data set [4] (Trypanosoma cruzi, 24 h). The EC50 was 0.19 µM in data set [3] (Trypanosoma cruzi); 4.83 µM in data set [4] (Trypanosoma cruzi, 2 h); 2.67 µM in data set [4] (Trypanosoma cruzi, 24 h).

With `Cc1ccc(CC(=O)c2cccc(OCCCCn3ccnc3)c2)cc1Nc1nccc(-c2cccnc2)n1` [LS2/97], the CC50 at 96 h in “in vitro” was 19.3 µM. Further, in data set [3], the “Selectivity index (IC50/EC50)” value worked out at 14.81. In addition, the concentration for an effect of 90% (EC90) was above 10 µM in data set [3] (setting [5]); 11.4 µM in data set [4] (Trypanosoma cruzi, 2 h); 8.52 µM in data set [4] (Trypanosoma cruzi, 24 h). The EC50 in data set [3] (Trypanosoma cruzi) stood at 1.3 µM; in data set [4] (Trypanosoma cruzi, 2 h), 7.84 µM; in data set [4] (Trypanosoma cruzi, 24 h), 4.72 µM.

Turning to `Cc1ccc(CC(=O)c2ccccc2OCCCCn2ccnc2)cc1Nc1nccc(-c2cccnc2)n1` [LS2/98], in the data set “in vitro”, the CC50 at 96 h came out at 12.2 µM. For the same compound, in data set [3], the “Selectivity index (IC50/EC50)” value was 3.93. Besides, the EC90 was above 10 µM in data set [3] (setting [5]); above 50 µM in data set [4] (Trypanosoma cruzi, 2 h); 22 µM in data set [4] (Trypanosoma cruzi, 24 h). The EC50 in data set [3] (Trypanosoma cruzi) is 3.31 µM; in data set [4] (Trypanosoma cruzi, 2 h), above 50 µM; in data set [4] (Trypanosoma cruzi, 24 h) it was 9.59 µM.

As for `COc1ccc(C(=O)Cc2ccc(C)c(Nc3nccc(-c4cccnc4)n3)c2)cc1OCCCCn1ccnc1` [LS2/116], the CC50 at 96 h in “in vitro” was 5.13 µM. In data set [3], the “Selectivity index (IC50/EC50)” value was determined as 3.49. Besides, the EC90 was above 10 µM in data set [3] (setting [5]); 28.1 µM in data set [4] (Trypanosoma cruzi, 2 h); 7.09 µM in data set [4] (Trypanosoma cruzi, 24 h). In addition, the concentration for a half-maximal effect (EC50) in data set [3] (Trypanosoma cruzi) amounted to 1.47 µM; in data set [4] (Trypanosoma cruzi, 2 h) it was 12 µM; in data set [4] (Trypanosoma cruzi, 24 h) it was 3.89 µM.

Compound `COc1cc(C(=O)Cc2ccc(C)c(Nc3nccc(-c4cccnc4)n3)c2)ccc1OCCCCn1ccnc1` [LS2/122] showed a CC50 at 96 h in “in vitro” of 5.44 µM. For the same compound, the “Selectivity index (IC50/EC50)” value in data set [3] is 1.22. Also, the EC90 was above 10 µM in data set [3] (setting [5]); 22.1 µM in data set [4] (Trypanosoma cruzi, 2 h); 5.34 µM in data set [4] (Trypanosoma cruzi, 24 h). The EC50 in data set [3] (Trypanosoma cruzi) stood at 4.47 µM; in data set [4] (Trypanosoma cruzi, 2 h) it was 11.1 µM; in data set [4] (Trypanosoma cruzi, 24 h), 3.27 µM.

For `Cc1ccc(CC(=O)c2ccc(Br)cc2OCCCCn2ccnc2)cc1Nc1nccc(-c2cccnc2)n1` [LS2/128], the CC50 at 96 h in “in vitro” stood at 17.9 µM. The “Selectivity index (IC50/EC50)” value in data set [3] is 4.22. The EC90 is above 10 µM in data set [3] (setting [5]); 8.93 µM in data set [4] (Trypanosoma cruzi, 2 h); 5.69 µM in data set [4] (Trypanosoma cruzi, 24 h). Further, the EC50 in data set [3] (Trypanosoma cruzi) was found to be 4.25 µM; in data set [4] (Trypanosoma cruzi, 2 h), 5.93 µM; in data set [4] (Trypanosoma cruzi, 24 h) it was 4.12 µM.

On to `Cc1ccc(CC(=O)c2ccc([N+](=O)[O-])c(OCCCCn3ccnc3)c2)cc1Nc1nccc(-c2cccnc2)n1` [LS2/130], for which, in data set [3], the “Selectivity index (IC50/EC50)” value was found to be 4.84. For the same compound, the EC90 in data set [3] (setting [5]) came to 9.44 µM; in data set [4] (Trypanosoma cruzi, 2 h) it was 7.31 µM; in data set [4] (Trypanosoma cruzi, 24 h), 4.8 µM. Further, the EC50 in data set [3] (Trypanosoma cruzi) came out at 1.05 µM; in data set [4] (Trypanosoma cruzi, 2 h), 5.69 µM; in data set [4] (Trypanosoma cruzi, 24 h), 3.4 µM.

These data come from paper PMC10090470 (Parasitology, 2023).
